This experiment deals with recombinant Human Phosphodiesterase B2 (PDE4B2) (Homo sapiens, UniProt Q07343). In words: Human Phosphodiesterase B2 Radiometric Assay. The format is biochemical. The following applies: 0.1 μg/mL recombinant PDE4B2; preincubated at 30 C for 30 min; [3H]cyclic AMP 8 nM, stopped after 20 min; yttrium silicate SPA beads; read-out: PDE4B2 pIC50 (converted). A digest of the protocol: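 Compounds preincubated 30 min at 30 C with 0.1 μg/mL recombinant PDE4B2 in 50 mM HEPES pH 7.5, 8.3 mM MgCl2, 1.7 mM EGTA, 0.01% Brij 35.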
Sequence of recombinant Human Phosphodiesterase B2 (PDE4B2) (Q07343 1-564 isoform Q07343-2): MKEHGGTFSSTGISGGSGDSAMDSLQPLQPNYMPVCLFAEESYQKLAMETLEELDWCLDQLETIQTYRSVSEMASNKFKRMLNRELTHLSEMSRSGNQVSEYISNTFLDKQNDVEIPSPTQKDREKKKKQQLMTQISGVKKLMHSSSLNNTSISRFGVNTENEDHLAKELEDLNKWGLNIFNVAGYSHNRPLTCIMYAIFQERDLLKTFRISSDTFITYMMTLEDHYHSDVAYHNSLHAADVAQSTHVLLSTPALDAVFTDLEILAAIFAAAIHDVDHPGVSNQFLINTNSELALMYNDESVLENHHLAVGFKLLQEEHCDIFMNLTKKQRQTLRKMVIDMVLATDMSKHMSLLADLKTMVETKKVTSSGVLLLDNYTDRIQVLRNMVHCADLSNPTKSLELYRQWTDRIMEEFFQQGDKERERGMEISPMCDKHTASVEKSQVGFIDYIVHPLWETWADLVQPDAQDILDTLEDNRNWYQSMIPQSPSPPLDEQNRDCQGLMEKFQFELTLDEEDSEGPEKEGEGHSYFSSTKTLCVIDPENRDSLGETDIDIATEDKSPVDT

For `Cc1cc(C(=O)N[C@H]2CC[C@@H](NC(=O)c3cc(F)cnc3Oc3cccc(-c4ccc(O)cc4CN4CCSCC4)c3)CC2)nn1C` [Example 22, N-((1s,4s)-4-(1,5-dimethyl-1H-pyrazole-3-carboxamido)cyclohexyl)-5-fluoro-2-(4′-hydroxy-2′-(thiomorpholinomethyl)biphenyl-3-yloxy)nicotinamide], the IC50 was 39.8 pM. Then `Cn1nc(C(=O)N[C@H]2CC[C@@H](NC(=O)c3cc(F)cnc3Oc3cccc(-c4ccc(CCN5CCNCC5)cc4)c3)CC2)cc1C(F)(F)F` [Example 176, 5-Fluoro-N-((1s,4s)-4-(1-methyl-5-(trifluoromethyl)-1H-pyrazole-3-carboxamido)cyclohexyl)-2-(4′-(2-(piperazin-1-yl)ethyl)biphenyl-3-yloxy)nicotinamide], with 50.1 pM; and `CC(C)c1ncc(C(=O)N[C@H]2CC[C@@H](NC(=O)c3cc(F)cnc3Oc3cccc(-c4ccc(O)cc4CN4CCOCC4)c3)CC2)s1` [Example 37, N-((1s,4s)-4-(5-fluoro-2-(4′-hydroxy-2′-(morpholinomethyl)biphenyl-3-yloxy)nicotinamido)cyclohexyl)-2-isopropylthiazole-5-carboxamide], with 200 pM; and `C[C@@H]1CN(CCCc2ccc(-c3cccc(Oc4ncc(F)cc4C(=O)N[C@H]4CC[C@@H](NC(=O)c5csc(CO)n5)CC4)c3)cc2)C[C@H](C)N1` [Example 149, N-((1s,4s)-4-(2-(4′-(3-((3S,5R)-3,5-dimethylpiperazin-1-yl)propyl)biphenyl-3-yloxy)-5-fluoronicotinamido)cyclohexyl)-2-(hydroxymethyl)thiazole-4-carboxamide], with 31.6 pM. With `Cc1nc(C(=O)N[C@H]2CC[C@@H](NC(=O)c3cc(F)cnc3Oc3cccc(-c4ccc(O)cc4CN(C)C(C)(C)C)c3)CC2)cs1` [Example 26, N-((1s,4s)-4-(2-(2′-((tert-butyl(methyl)amino)methyl)-4′-hydroxybiphenyl-3-yloxy)-5-fluoronicotinamido)cyclohexyl)-2-methylthiazole-4-carboxamide] the figure was 200 pM; with `Cc1nc(C(=O)N[C@H]2CC[C@@H](NC(=O)c3cc(F)cnc3Oc3cccc(-c4ccc(O)cc4CN4C[C@@H](C)O[C@@H](C)C4)c3)CC2)cs1` [Example 24, N-((1s,4s)-4-(2-(2′-(((2S,6R)-2,6-dimethylmorpholino)methyl)-4′-hydroxybiphenyl-3-yloxy)-5-fluoronicotinamido)cyclohexyl)-2-methylthiazole-4-carboxamide], 100 pM.

With `Cc1nc(C(=O)N[C@H]2CC[C@@H](NC(=O)c3cc(F)cnc3Oc3cccc(-c4cccc(CN5C[C@@H](C)N[C@@H](C)C5)c4O)c3)CC2)cs1` [Example 69, N-((1s,4s)-4-(2-(3′-(((3R,5S)-3,5-dimethylpiperazin-1-yl)methyl)-2′-hydroxybiphenyl-3-yloxy)-5-fluoronicotinamido)cyclohexyl)-2-methylthiazole-4-carboxamide], the IC50 is 398 pM. With `Cc1cccc2nc(C(=O)N[C@H]3CC[C@@H](NC(=O)c4cc(F)cnc4Oc4cccc(-c5ccc(CN6C[C@@H](C)N[C@@H](C)C6)c(O)c5)c4)CC3)cn12` [Example 96, N-((1s,4s)-4-(2-(4′-(((3S,5R)-3,5-dimethylpiperazin-1-yl)methyl)-3′-hydroxybiphenyl-3-yloxy)-5-fluoronicotinamido)cyclohexyl)-5-methylimidazo[1,2-a]pyridine-2-carboxamide] the figure was 200 pM. Then `O=C(N[C@H]1CC[C@@H](NC(=O)c2cc(F)cnc2Oc2cccc(-c3ccc(CCCNCCCO)cc3)c2)CC1)c1cc2ccccn2n1` [Example 159, N-((1s,4s)-4-(5-Fluoro-2-(4′-(3-(3-hydroxypropylamino)propyl)biphenyl-3-yloxy)nicotinamido)cyclohexyl)pyrazolo[1,5-a]pyridine-2-carboxamide], with 50.1 pM; and `Cc1cc(C(=O)N[C@H]2CC[C@@H](NC(=O)c3cc(F)cnc3Oc3cccc(-c4ccc(CCN5CCCN(C)CC5)cc4)c3)CC2)nn1C` [Example 166, N-((1s,4s)-4-(1,5-Dimethyl-1H-pyrazole-3-carboxamido)cyclohexyl)-5-fluoro-2-(4′-(2-(4-methyl-1,4-diazepan-1-yl)ethyl)biphenyl-3-yloxy)nicotinamide], with 39.8 pM; and `C[C@@H]1CN(CCc2ccc(-c3cccc(Oc4ncc(F)cc4C(=O)N[C@H]4CC[C@@H](NC(=O)c5cnc6ccccc6n5)CC4)c3)cc2)C[C@H](C)N1` [Example 99, N-((1s,4s)-4-(2-(4′-(2-((3S,5R)-3,5-dimethylpiperazin-1-yl)ethyl)biphenyl-3-yloxy)-5-fluoronicotinamido)cyclohexyl)quinoxaline-2-carboxamide], with 79.4 pM.

On to `C[C@@H]1CN(CCc2ccc(-c3cccc(Oc4ncc(F)cc4C(=O)N[C@H]4CC[C@@H](NC(=O)c5ccn(C)n5)CC4)c3)cc2)C[C@H](C)N1` [Example 163, 2-(4′-(2-((3S,5R)-3,5-Dimethylpiperazin-1-yl)ethyl)biphenyl-3-yloxy)-5-fluoro-N-((1s,4s)-4-(1-methyl-1H-pyrazole-3-carboxamido)cyclohexyl)nicotinamide], for which the IC50 was 39.8 pM. With `Cc1csc(C(=O)N[C@H]2CC[C@@H](NC(=O)c3cc(F)cnc3Oc3cccc(-c4ccc(CN5CCN(CC(=O)NC(C)C)CC5)cc4CN4CCOCC4)c3)CC2)n1` [Example 198, N-((1s,4s)-4-(5-fluoro-2-(4′-((4-(2-(isopropylamino)-2-oxoethyl)piperazin-1-yl)methyl)-2′-(morpholinomethyl)biphenyl-3-yloxy)nicotinamido)cyclohexyl)-4-methylthiazole-2-carboxamide] the figure was 25.1 pM; with `Cc1cc(C(=O)N[C@H]2CC[C@@H](NC(=O)c3cc(F)cnc3Oc3cccc(-c4ccc(CN(C)C)cc4CN4CCOCC4)c3)CC2)nn1C` [Example 120, N-((1s,4s)-4-(1,5-dimethyl-1H-pyrazole-3-carboxamido)cyclohexyl)-2-(4′-((dimethylamino)methyl)-2′-(morpholinomethyl)biphenyl-3-yloxy)-5-fluoronicotinamide], 50.1 pM; with `O=C(N[C@H]1CC[C@@H](NC(=O)c2cc(F)cnc2Oc2cccc(-c3ccc(CCCN4CCNCC4)cc3)c2)CC1)c1cc(C2CC2)n[nH]1` [Example 173, N-((1s,4s)-4-(3-Cyclopropyl-1H-pyrazole-5-carboxamido)cyclohexyl)-5-fluoro-2-(4′-(3-(piperazin-1-yl)propyl)biphenyl-3-yloxy)nicotinamide], 39.8 pM.

For `Cc1nc(C(=O)N[C@H]2CC[C@@H](NC(=O)c3cc(F)cnc3Oc3cccc(-c4ccc(O)cc4CN(C)C)c3)CC2)cs1` [Example 9, N-((1s,4s)-4-(2-(2′-((dimethylamino)methyl)-4′-hydroxybiphenyl-3-yloxy)-5-fluoronicotinamido)cyclohexyl)-2-methylthiazole-4-carboxamide], the IC50 was 31.6 pM. Then `Cc1nc(C(=O)N[C@H]2CC[C@@H](NC(=O)c3cc(F)cnc3Oc3cccc(-c4ccc(CCCN5CCNCC5)cc4)c3)CC2)cs1` [Example 74, N-((1s,4s)-4-(5-fluoro-2-(4′-(3-(piperazin-1-yl)propyl)biphenyl-3-yloxy)nicotinamido)cyclohexyl)-2-methylthiazole-4-carboxamide], with 25.1 pM; and `C[C@@H]1CN(Cc2ccc(-c3cccc(Oc4ncc(F)cc4C(=O)N[C@H]4CC[C@@H](NC(=O)c5ccc6ccccc6n5)CC4)c3)c(CN3CCOCC3)c2)C[C@H](C)N1` [Example 147, N-((1s,4s)-4-(2-(4′-(((3S,5R)-3,5-dimethylpiperazin-1-yl)methyl)-2′-(morpholinomethyl)biphenyl-3-yloxy)-5-fluoronicotinamido)cyclohexyl)quinoline-2-carboxamide], with 50.1 pM. With `CN(C)Cc1cc(O)ccc1-c1cccc(Oc2ncc(F)cc2C(=O)N[C@H]2CC[C@@H](NC(=O)c3nc4ccccc4s3)CC2)c1` [Example 44, N-((1s,4s)-4-(2-(2′-((dimethylamino)methyl)-4′-hydroxybiphenyl-3-yloxy)-5-fluoronicotinamido)cyclohexyl)benzo[d]thiazole-2-carboxamide] the figure was 100 pM. With `Cc1nc(C(=O)N[C@H]2CC[C@@H](NC(=O)c3cc(F)cnc3Oc3cccc(-c4ccc(CN5CCCN(C)CC5)cc4)c3)CC2)cs1` [Example 60, N-((1s,4s)-4-(5-fluoro-2-(4′-((4-methyl-1,4-diazepan-1-yl)methyl)biphenyl-3-yloxy)nicotinamido)cyclohexyl)-2-methylthiazole-4-carboxamide] the figure was 50.1 pM; with `Cc1cc(C(=O)N[C@H]2CC[C@@H](NC(=O)c3cc(F)cnc3Oc3cccc(-c4ccc(CCCN5CCNC[C@H]5C)cc4)c3)CC2)nn1C` [Example 142, N-((1s,4s)-4-(1,5-dimethyl-1H-pyrazole-3-carboxamido)cyclohexyl)-5-fluoro-2-(4′-(3-((R)-2-methylpiperazin-1-yl)propyl)biphenyl-3-yloxy)nicotinamide], 25.1 pM; with `Cc1nc(C(=O)N[C@H]2CC[C@@H](NC(=O)c3cc(F)cnc3Oc3cccc(-c4ccc(CCCN5C[C@@H](C)N[C@@H](C)C5)cc4)c3)CC2)cs1` [Example 75, N-((1s,4s)-4-(2-(4′-(3-((3S,5R)-3,5-dimethylpiperazin-1-yl)propyl)biphenyl-3-yloxy)-5-fluoronicotinamido)cyclohexyl)-2-methylthiazole-4-carboxamide], 31.6 pM. As for `Cc1cc(C)n2ncc(C(=O)N[C@H]3CC[C@@H](NC(=O)c4cc(F)cnc4Oc4cccc(-c5ccc(CN6CCN(CC(=O)NC(C)C)CC6)cc5CN5CCOCC5)c4)CC3)c2n1` [Example 178, N-((1s,4s)-4-(5-Fluoro-2-(4′-((4-(2-(isopropylamino)-2-oxoethyl)piperazin-1-yl)methyl)-2′-(morpholinomethyl)biphenyl-3-yloxy)nicotinamido)cyclohexyl)-5,7-dimethylpyrazolo[1,5-a]pyrimidine-3-carboxamide], the IC50 was 39.8 pM.
